From PubChem BioAssay AID1963964 (Molecular Pharmacology Branch, DTP, NCI, 2024)

Tested on: 997726-040-R-J2-PDC tumor spheroids, viability
Test: Anticancer human tumor 997726-040-R-J2-PDC patient-derived squamous cell lung carcinoma cell line growth inhibition [PI3K]
Settings: spheroids with HUVEC and MSC; for IC50: curve of first compound; for viability, T/C: stronger effect = lower value
From the text: Combinatorial screen of targeted agents with the PI3K inhibitors inavolisib, alpelisib, duvelisib, and copanlisib in multi-cell type tumor spheroids
A high-throughput screen of multi-cell type tumor spheroids was designed to identify active combinations of targeted small molecules and PI3K pathway inhibitors. Complex spheroids include a stromal component modeled by human endothelial cells (HUVEC) and fibroblasts modeled by human mesenchymal stem cells (MSCs). The concentration ranges selected for each drug and investigational agent were based upon clinically achievable concentrations if the clinical Cmax of the agent was known.
Compounds. The drugs and investigational agents: inavolisib (NSC800729), alpelisib (NSC765974), duvelisib (NSC772469), copanlisib (NSC816437), ipatasertib (NSC767898), afuresertib (NSC778305), talazoparib (NSC767125), sapanisertib (NSC764658), selumetinib (NSC741078), tovorafenib (DAY101, NSC766906), vemurafenib (NSC761431), ravoxertinib (NSC781343), sotorasib (NSC818433), MRTX1133 (NSC 836407), abemaciclib (NSC 768073), palbociclib (NSC758247), venetoclax (NSC 766270), SY5609 (NSC837396), enzalutamide (NSC755605), and darolutamide (NSC825331), were obtained from the National Cancer Institute (NCI) Developmental Therapeutics Program Chemical Repository. The FDA-approved anticancer drug set is available from the NCI Developmental Therapeutics Program. […] The stock solutions were prepared in dimethyl sulfoxide (DMSO, Sigma-Aldrich, St. Louis, MO, cat. D2650) at 800-fold the tested concentration and stored at -70 degrees C prior to their use. All drugs and investigational agents were tested over a range starting from a high concentration at or near the clinical Cmax and decreasing in half-log increments. If the clinical Cmax for an agent had not been determined, the highest concentration tested was 10 microM.
Cell Culture. All cells were maintained in an incubator at 37 degrees C and 5% CO2 with 95% humidity. The PDC lines were cultured according to standard operating procedures established by the NCI PDMR (https://pdmr.cancer.gov/sops/default.htm). All PDCs were thawed and cultured in Matrigel-coated flasks prepared with a working solution of 1X Ham's F-12 nutrient mix, without supplementation (Invitrogen, Waltham, MA, cat. 11765054), 100 U/mL penicillin-streptomycin (Invitrogen, cat. 15140122), and 2.5% Matrigel (Corning Inc., Corning, NY, cat. 354248) for the first three passages. The 354836-022-R-J1-PDC, 475296-252-R-J1-PDC, and 997726-040-R-J2-PDC lines were cultured in 6A media, which includes advanced DMEM/F-12 (Thermo Fisher Scientific, cat. 12634028), 10 mM HEPES (Thermo Fisher Scientific, cat. 15630080), 1X GlutaMAX supplement (Thermo Fisher Scientific, cat. 35050061), 0.1 mg/mL primocin (InvivoGen, San Diego, CA, cat. ant-pm-2), 10% defined fetal bovine serum, heat inactivated (HyClone Laboratories Inc., Logan, UT, cat. SH30070.03HI), 50% L-WRN conditioned media (ATCC, cat. CRL-3276), 1.25 mM N-Acetyl-L-cysteine (Sigma-Aldrich, cat. A9165), 10 mM nicotinamide (Sigma-Aldrich, cat. N0636), 1X B-27 supplement (Thermo Fisher Scientific, cat. 17504044), 1X N-2 supplement (Thermo Fisher Scientific, cat. 17502048), and 10 microM Y-27632 dihydrochloride (Tocris Bioscience, Bristol, United Kingdom, cat. 1254). The 624824-186-R-J2-PDC line was cultured in 6C/Colon 1B media, which includes all 6A media components plus 50 ng/mL human EGF recombinant protein (Thermo Fisher Scientific, cat. PHG0311). […]
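Note: spheroids exposed to compounds for seven days before readout.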

CNC(=O)c1ccc(N2C(=S)N(c3ccc(C#N)c(C(F)(F)F)c3)C(=O)C2(C)C)cc1F + CC(Nc1ncnc2nc[nH]c12)c1cc2cccc(Cl)c2c(=O)n1-c1ccccc1
IC50 (second compound 0.0316 µM): > 10 µM
IC50 (second compound 0.1 µM): > 10 µM
IC50 (second compound 0.316 µM): > 10 µM
IC50 (second compound 1 µM): > 10 µM
IC50 (second compound 3.16 µM): > 10 µM
IC50 (second compound 10 µM): > 10 µM
viability, T/C (second compound 0.0316 µM, first compound 0.0316 µM): 88.7%
viability, T/C (second compound 0.0316 µM, first compound 0.1 µM): 97.8%
viability, T/C (second compound 0.0316 µM, first compound 0.316 µM): 115%
viability, T/C (second compound 0.0316 µM, first compound 1 µM): 90.4%
viability, T/C (second compound 0.0316 µM, first compound 3.16 µM): 102%
viability, T/C (second compound 0.0316 µM, first compound 10 µM): 86.7%
viability, T/C (second compound 0.1 µM, first compound 0.0316 µM): 98%
viability, T/C (second compound 0.1 µM, first compound 0.1 µM): 93.6%
viability, T/C (second compound 0.1 µM, first compound 0.316 µM): 97%
viability, T/C (second compound 0.1 µM, first compound 1 µM): 107%
viability, T/C (second compound 0.1 µM, first compound 3.16 µM): 104%
viability, T/C (second compound 0.1 µM, first compound 10 µM): 92.4%
viability, T/C (second compound 0.316 µM, first compound 0.0316 µM): 104%
viability, T/C (second compound 0.316 µM, first compound 0.1 µM): 109%
viability, T/C (second compound 0.316 µM, first compound 0.316 µM): 101%
viability, T/C (second compound 0.316 µM, first compound 1 µM): 99.2%
viability, T/C (second compound 0.316 µM, first compound 3.16 µM): 104%
viability, T/C (second compound 0.316 µM, first compound 10 µM): 90.2%
viability, T/C (second compound 1 µM, first compound 0.0316 µM): 96.7%
viability, T/C (second compound 1 µM, first compound 0.1 µM): 86.6%
viability, T/C (second compound 1 µM, first compound 0.316 µM): 78.7%
viability, T/C (second compound 1 µM, first compound 1 µM): 85%
viability, T/C (second compound 1 µM, first compound 3.16 µM): 89%
viability, T/C (second compound 1 µM, first compound 10 µM): 86.9%
viability, T/C (second compound 3.16 µM, first compound 0.0316 µM): 71%
viability, T/C (second compound 3.16 µM, first compound 0.1 µM): 73.8%
viability, T/C (second compound 3.16 µM, first compound 0.316 µM): 72.6%
viability, T/C (second compound 3.16 µM, first compound 1 µM): 80%
viability, T/C (second compound 3.16 µM, first compound 3.16 µM): 80.3%
viability, T/C (second compound 3.16 µM, first compound 10 µM): 66.2%
viability, T/C (second compound 10 µM, first compound 0.0316 µM): 59.5%
viability, T/C (second compound 10 µM, first compound 0.1 µM): 53.9%
viability, T/C (second compound 10 µM, first compound 0.316 µM): 50.6%
viability, T/C (second compound 10 µM, first compound 1 µM): 48%
viability, T/C (second compound 10 µM, first compound 3.16 µM): 54.4%
viability, T/C (second compound 10 µM, first compound 10 µM): 50%
